The target of test [1] is T1, Tyrosine-protein kinase Tec (Homo sapiens) (UniProt P42680).
T1 sequence (whole entry): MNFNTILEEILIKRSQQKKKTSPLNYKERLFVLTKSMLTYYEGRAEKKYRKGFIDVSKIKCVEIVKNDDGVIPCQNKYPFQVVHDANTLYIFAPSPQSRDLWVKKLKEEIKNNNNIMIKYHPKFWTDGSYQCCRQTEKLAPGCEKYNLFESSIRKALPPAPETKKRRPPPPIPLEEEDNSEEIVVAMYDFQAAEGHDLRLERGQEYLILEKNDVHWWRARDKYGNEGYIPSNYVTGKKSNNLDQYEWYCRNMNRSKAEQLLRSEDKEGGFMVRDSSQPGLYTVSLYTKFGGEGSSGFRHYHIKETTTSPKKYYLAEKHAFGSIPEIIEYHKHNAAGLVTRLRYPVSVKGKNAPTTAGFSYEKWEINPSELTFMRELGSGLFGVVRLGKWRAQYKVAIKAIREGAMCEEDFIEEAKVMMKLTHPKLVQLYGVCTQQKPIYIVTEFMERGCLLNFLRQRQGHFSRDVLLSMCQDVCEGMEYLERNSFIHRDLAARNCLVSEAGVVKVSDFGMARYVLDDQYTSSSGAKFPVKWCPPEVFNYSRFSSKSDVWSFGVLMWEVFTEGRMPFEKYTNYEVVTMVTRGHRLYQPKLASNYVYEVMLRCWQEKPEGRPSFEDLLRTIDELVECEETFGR
Put plainly: Selectivity interaction (ActivX KiNativ screen (kinase selectivity in THP-1 cell lysates)) EUB0000639a TEC. It is filed as subcellular. The following applies: lysate, at 0.2 µM.

In test [2] the target is T2, Inhibitor of nuclear factor kappa-B kinase subunit epsilon (Homo sapiens) (UniProt Q14164).
T2 sequence (whole entry): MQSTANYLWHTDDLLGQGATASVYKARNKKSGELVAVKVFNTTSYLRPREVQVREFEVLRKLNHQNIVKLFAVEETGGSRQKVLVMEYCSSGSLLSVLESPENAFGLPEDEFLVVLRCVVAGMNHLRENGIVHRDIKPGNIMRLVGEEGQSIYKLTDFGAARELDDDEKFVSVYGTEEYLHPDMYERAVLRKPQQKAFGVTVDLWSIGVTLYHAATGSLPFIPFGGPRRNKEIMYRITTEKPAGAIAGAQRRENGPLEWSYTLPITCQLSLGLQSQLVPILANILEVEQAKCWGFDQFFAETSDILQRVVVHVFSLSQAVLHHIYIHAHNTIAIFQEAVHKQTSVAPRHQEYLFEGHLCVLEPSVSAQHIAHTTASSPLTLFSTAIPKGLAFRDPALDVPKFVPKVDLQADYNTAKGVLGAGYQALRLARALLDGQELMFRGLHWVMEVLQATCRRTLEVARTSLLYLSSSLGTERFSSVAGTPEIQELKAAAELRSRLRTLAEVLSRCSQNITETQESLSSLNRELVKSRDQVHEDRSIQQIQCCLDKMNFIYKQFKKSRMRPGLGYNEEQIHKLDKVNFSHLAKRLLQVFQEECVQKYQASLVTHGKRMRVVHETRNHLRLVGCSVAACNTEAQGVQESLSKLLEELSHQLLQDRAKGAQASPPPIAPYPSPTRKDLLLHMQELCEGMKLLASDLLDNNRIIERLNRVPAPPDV
Put plainly: Selectivity interaction (KinomeScan (DiscoverX)) EUB0001049a IKBKE. To be noted: at 1 µM.

For test [3], the target named is Dual specificity mitogen-activated protein kinase kinase 1 (Homo sapiens, UniProt Q02750). Kind of test: Selectivity interaction (KinomeScan (DiscoverX)) EUB0000655a MAP2K1. The following applies: at 10 µM.
For test [4], the target named is Mitogen-activated protein kinase kinase kinase 9 (Homo sapiens) (UniProt P80192). Kind of test: Selectivity interaction (KinomeScan (DiscoverX)) EUB0000092b MAP3K9. The following applies: at 10 µM.
Test [5] has as its target T3, Ephrin type-B receptor 2 (Homo sapiens) (UniProt P29323).
T3 sequence (whole entry): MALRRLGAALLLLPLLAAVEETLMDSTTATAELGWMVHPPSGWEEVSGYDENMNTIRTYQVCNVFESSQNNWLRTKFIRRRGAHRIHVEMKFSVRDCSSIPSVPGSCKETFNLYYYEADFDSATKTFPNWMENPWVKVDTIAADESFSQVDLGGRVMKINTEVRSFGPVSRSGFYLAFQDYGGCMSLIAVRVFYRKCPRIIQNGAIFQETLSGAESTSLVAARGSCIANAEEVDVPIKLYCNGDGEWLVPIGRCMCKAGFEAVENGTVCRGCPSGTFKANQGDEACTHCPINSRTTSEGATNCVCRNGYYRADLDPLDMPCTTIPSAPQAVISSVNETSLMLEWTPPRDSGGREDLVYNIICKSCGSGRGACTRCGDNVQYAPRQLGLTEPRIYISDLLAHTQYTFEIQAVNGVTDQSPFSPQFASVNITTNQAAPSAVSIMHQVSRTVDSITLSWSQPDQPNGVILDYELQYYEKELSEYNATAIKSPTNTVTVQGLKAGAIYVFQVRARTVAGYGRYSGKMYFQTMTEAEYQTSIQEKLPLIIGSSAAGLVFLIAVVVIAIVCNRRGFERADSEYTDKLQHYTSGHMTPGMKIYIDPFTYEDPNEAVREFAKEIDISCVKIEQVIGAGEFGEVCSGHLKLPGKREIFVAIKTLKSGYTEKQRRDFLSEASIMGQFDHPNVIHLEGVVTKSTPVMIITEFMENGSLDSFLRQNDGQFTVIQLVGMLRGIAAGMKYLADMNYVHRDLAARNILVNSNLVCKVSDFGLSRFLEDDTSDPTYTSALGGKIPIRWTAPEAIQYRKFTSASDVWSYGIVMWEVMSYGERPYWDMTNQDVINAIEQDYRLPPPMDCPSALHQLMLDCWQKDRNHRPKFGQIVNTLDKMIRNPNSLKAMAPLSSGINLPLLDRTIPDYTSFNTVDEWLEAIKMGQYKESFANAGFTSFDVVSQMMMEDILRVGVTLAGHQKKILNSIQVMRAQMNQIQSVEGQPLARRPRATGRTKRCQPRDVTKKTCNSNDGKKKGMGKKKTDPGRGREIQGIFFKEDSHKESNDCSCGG
Put plainly: Selectivity interaction (KinomeScan (DiscoverX)) EUB0000229b EPHB2. To be noted: at 10 µM.

The target in test [6] is Cyclin-dependent kinase 2 (Homo sapiens, UniProt P24941). Kind of test: Selectivity interaction (Kinase panel (KiNativ target engagement assay in Jurkat cells)) EUB0001635a CDK2. It is filed as cell-based. To be noted: at 1 µM.

Sequence of Dual specificity mitogen-activated protein kinase kinase 1 (Q02750 whole entry): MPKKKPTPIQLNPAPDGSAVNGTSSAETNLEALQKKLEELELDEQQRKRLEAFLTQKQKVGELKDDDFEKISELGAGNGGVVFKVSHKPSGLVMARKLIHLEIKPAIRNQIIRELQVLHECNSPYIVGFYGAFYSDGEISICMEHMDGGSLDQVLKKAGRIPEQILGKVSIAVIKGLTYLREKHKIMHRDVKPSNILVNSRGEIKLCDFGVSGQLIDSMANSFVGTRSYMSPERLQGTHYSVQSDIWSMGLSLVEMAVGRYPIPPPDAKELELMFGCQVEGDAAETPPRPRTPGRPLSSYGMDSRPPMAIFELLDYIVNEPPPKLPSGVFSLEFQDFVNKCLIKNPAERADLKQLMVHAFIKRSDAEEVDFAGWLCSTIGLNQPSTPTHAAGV
Sequence of Mitogen-activated protein kinase kinase kinase 9 (Homo sapiens) (P80192 whole entry, looked up): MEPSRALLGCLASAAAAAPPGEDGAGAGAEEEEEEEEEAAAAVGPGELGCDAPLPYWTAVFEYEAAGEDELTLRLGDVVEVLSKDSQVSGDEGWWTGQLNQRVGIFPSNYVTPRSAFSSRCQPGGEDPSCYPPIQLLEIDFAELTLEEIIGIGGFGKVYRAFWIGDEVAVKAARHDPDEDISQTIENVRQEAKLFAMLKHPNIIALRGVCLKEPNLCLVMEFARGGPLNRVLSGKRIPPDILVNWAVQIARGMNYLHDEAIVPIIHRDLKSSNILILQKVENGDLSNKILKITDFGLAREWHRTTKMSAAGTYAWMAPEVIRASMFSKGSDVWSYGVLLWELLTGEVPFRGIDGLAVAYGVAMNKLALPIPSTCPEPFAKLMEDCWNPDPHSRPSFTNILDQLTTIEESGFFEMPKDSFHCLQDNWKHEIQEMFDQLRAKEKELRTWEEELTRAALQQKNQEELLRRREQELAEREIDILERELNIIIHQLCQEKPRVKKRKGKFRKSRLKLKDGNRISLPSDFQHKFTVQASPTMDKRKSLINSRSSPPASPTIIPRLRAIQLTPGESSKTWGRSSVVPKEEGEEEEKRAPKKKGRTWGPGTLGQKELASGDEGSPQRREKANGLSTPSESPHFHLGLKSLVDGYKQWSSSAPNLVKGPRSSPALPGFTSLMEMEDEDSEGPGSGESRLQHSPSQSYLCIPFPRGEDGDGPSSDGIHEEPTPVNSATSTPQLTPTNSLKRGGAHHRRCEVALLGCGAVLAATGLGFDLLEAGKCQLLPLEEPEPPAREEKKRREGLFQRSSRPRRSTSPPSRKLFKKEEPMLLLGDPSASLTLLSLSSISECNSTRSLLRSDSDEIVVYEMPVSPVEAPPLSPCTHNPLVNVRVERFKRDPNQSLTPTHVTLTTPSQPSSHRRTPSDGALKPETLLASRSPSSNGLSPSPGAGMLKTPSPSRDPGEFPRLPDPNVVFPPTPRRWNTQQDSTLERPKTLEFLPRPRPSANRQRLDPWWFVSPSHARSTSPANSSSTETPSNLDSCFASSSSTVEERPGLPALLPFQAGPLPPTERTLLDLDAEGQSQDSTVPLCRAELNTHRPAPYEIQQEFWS

`CC[C@@H]1[C@H](F)C(=O)N[C@@H]1COc1nccc2cc(C(N)=O)c(OC)cc12` [ZIMLOVISERTIB]: the % of inhibition in test [1] is -52.3%. `COc1cc(Nc2nc(C)cc(-c3cnn4nc(OC)ccc34)n2)cc(C(F)(F)F)c1` displayed a % of control in test [2] of 83%. In turn, `CN(C)CCOc1ccc(-c2nc(-c3ccncc3)c(-c3ccc4c(c3)CC/C4=N\O)[nH]2)cc1` came in with a % of control in test [3] of 99%. In the case of `CCC(=O)N1CCN(c2ccc(-n3c(=O)ccc4cnc5ccc(-c6cnc7ccccc7c6)cc5c43)cc2C(F)(F)F)CC1`, the % of control in test [4] worked out at 84%. In the case of `COc1cc(N(C)c2ccnc3ccc(C(F)(F)F)cc23)cc(OC)c1OC`, in test [5], the % binding is 93%. For the compound `C=CC(=O)Nc1ccc(C(=O)Nc2[nH]nc3c2CN(C(=O)N[C@H](CN(C)C)c2ccccc2)C3(C)C)cc1`, the % of engagement in test [6] (Selectivity number of off-targets 0.0, Selectivity number of targets 233.0, Source Knowledge https://www.sciencedirect.com/science/article/pii/S2451945619300674?via%3Dihub) is -25.3%; in test [6], -16.4%.

These data come from ChEMBL document CHEMBL5465560, “Selectivity Literature for EUbOPEN Chemogenomic Library” (2024).
